Legend:
BT-474 tumors = experiment: BT474 orthotopic xenograft, Compound A and trastuzumab combination (Example 3); type: in vivo, mice
Procedure: The Compound was fully dissolved in NMP. Then, PEG300 and liquified Solutol were added (in sequence with vortexing after addition of each reagent).
Where applicable, data is presented as mean±SEM.

HBCx-5 xenograft tumor = experiment: HBCx-5 breast cancer xenograft, antitumor activity (Example 5); type: in vivo, mice; details: Compound A 50 mg/kg p.o. daily for 42 days, single agent; p<0.001
Procedure: Compound A was suspended at mg/ml in 0.5% methylcellulose (Sigma Aldrich, St. Louis, Mo.). It was homogenized by stirring vortexing and sonication. The suspension was stored at 4° C. for 7 days protected from light. […] Stock solution at 21 mg/ml was diluted just before administration at 1 mg/ml with sterile water for injection. Capecitabine (Xeloda®, Roche) at […] was kept at 4° C. protected from light. Capecitabine pellets were crushed and suspended in NaCl 0.9%.
Dose was body weight adjusted at each injection.
Capecitabine was administered by oral gavage (p.o.) at […], five times per week for two weeks (i.e., five consecutive dosing days/week). After a one week rest, a second treatment cycle was performed.

[1] = Body weight in BT474 combination study (Example 3); type: in vivo, mice; details: Compound A 50 mg/kg p.o. daily, single agent; significant
Procedure: (§1) Tumor volumes were measured with calipers and determined according to the formula: length×diameter^2×π/6. […] Regressions (%) were calculated according to the formula ((mean tumor volume at end of treatment-mean tumor volume at start of treatment)/mean tumor volume at start of treatment)×100. Body weights and tumor volumes were recorded twice a week.
(§2) Where applicable, data is presented as mean±SEM. For all tests, the level of significance was set at p<0.05. For tumor volumes, comparisons between treatment groups and vehicle control group were done using one-way ANOVA followed by Dunnett's test. The level of significance of body weight change within a group between the start and the end of the treatment period was determined using a paired t-test. Comparisons of delta body weights between treatment and vehicle control groups were performed by a one-way ANOVA followed by a post hoc Dunnett's test.

NCI-N87 tumors = experiment: NCI-N87 xenograft in CB17 SCID mice, Compound A alone and with trastuzumab (Example 4); type: in vivo
Procedure: Experiments were performed in female CB17 SCID mice (Fox Chase SCID®, CB17/lcr-Prkdc^scid, Charles River) approximately 7-8 weeks of age and having a body weight (BW) range of 14.7-21.2 g at treatment start. All animals were fed ad libitum water (reverse osmosis, 1 ppm CI) and NIH 31 Modified and Irradiated Lab Diet® consisting of 18.0% crude protein, 5.0% crude fat, and 5.0% crude fiber. The mice were housed on irradiated Enrich-O'cobs™ Laboratory Animal Bedding in static microisolators on a 12-hour light cycle at 21-22° C. and 40-60% humidity.
NCI-N87 cells (obtained from the American Type Culture Collection), which are of gastric origin and ErbB2 amplified, were maintained as exponentially growing cultures in RPMI-1640 medium supplemented with 10% fetal bovine serum, 2 mM glutamine, 100 units/mL penicillin G sodium, and 100 μg/mL streptomycin sulfate. The tumor cells were cultured in tissue culture flasks in a humid incubator at 37° C., in an atmosphere of 5% CO2 and 95% air. Cells were harvested with 1× trypsin and suspended at a concentration of 5×10^7 cells/mL in cold phosphate-buffered saline with 50% Matrigel. Each mouse was injected subcutaneously in the right flank with 1×10^7 cells (0.2 mL cell suspension). Tumor volumes were measured with calipers and determined according to the formula: width^2×length/2, and tumor weight estimated with the assumption that 1 mg is equivalent to 1 mm^3 of tumor volume. Nine days after tumor implantation (on Day 1 of the study), mice with individual tumor volumes of 126-320 mm^3 were sorted into 12 groups of eight mice with a group mean tumor volume of 231-239 mm^3.
Compound A was formulated in NMP/PEG300/Solutol HS15/deionized water (10:30:20:40% vol/vol). The Compound was fully dissolved in NMP. Then, PEG300 and liquified Solutol were added (in sequence with vortexing after addition of each reagent). Water was added prior to administration to the animals. Fresh dosing solutions were prepared weekly and stored at 4° C., protected from light.
Treatments started 9 days post tumor cell implantation and lasted for 30 consecutive days (or until tumor volume=2000 mm^3).
Where applicable, data is presented as mean±SEM. Statisticial and graphical analyses was performed with Prism 3.03 (GraphPad) for Windows. For all tests, the level of significance of differences was done using ANOVA, with Bartlett's test; and a post-hoc Dunnett's multiple comparison test compared the mean change for each drub-treated group to the mean for Group 1. […] The significance of differences between the median volume changes for drug-treated groups and Group 1 was analyzed post hoc with Dunn's multiple comparison test. The two-tailed statistical analyses were conducted at P=0.05. Prism summarizes test results as not significant (ns) at P>0.05, significant (symbolized by “*”) at 0.01<P≤0.05, very significant (symbolized by “**”) at 0.001<P≤0.01, and extremely significant (symbolized by “***”) at P≤0.001.

[2] = Body weight nadir and deaths in NCI-N87 lapatinib study (Example 6)
Procedure: Treatments started eight days post tumor cell implantation and lasted for 59 consecutive days or until tumor volume=1000 mm^3. […] For the b.i.d. dosing schedule, the first dose was given p.m. on Day 1 and last dose a.m. on Day 22. […] Body weights were recorded on Days 1-5, on each treatment day (except weekends), and twice weekly thereafter until end of the study.

[3] = Body weight change in BT474 xenograft mice (Example 1); type: in vivo; details: for mean body weight change: not significant; for mean change of body weight: 50 mg/kg p.o. once daily, p<0.05
Procedure: as §1, §2

[4] = Group 2 (8 animals): Compound A 12.5 mg/kg p.o. once daily
[5] = Group 3 (6 animals): Compound A 25 mg/kg p.o. once daily
[6] = Group 4 (4 animals): Compound A 50 mg/kg p.o. once daily, stopped early
[7] = Group 2: Compound A 12.5 mg/kg p.o. once daily
[8] = Group 3: Compound A 25 mg/kg p.o. once daily

SMILES: Cc1nc(NC(=O)N2CCC[C@H]2C(N)=O)sc1-c1ccnc(C(C)(C)C(F)(F)F)c1 [Compound A, (S)-Pyrrolidine-1,2-dicarboxylic acid 2-amide 1-({4-methyl-5-[2-(2,2,2-trifluoro-1,1-dimethyl-ethyl)-pyridin-4-yl]-thiazol-2-yl}-amide)]
- Change Tumor Volume (BT-474 tumors; B: Compound A 12.5 mg/kg p.o. daily, control C 584.2): 125.7
- T/C (BT-474 tumors; Compound A 12.5 mg/kg p.o. daily, single agent): 21.5%
- antitumor effect (BT-474 tumors; Compound A 50 mg/kg p.o. daily, single agent, p<0.05 Mann-Whitney): statistically significant antitumor effect
- B/C (BT-474 tumors; change tumor volume ratio, Compound A 12.5 mg/kg vs control): 0.215
- T/C (HBCx-5 xenograft tumor): 17.57%
- body weight loss [1]: about 12%
- Regressions CR (complete regression) (NCI-N87 tumors; [4]): CR: 0
- Regressions PR (partial regression) (NCI-N87 tumors; [4]): PR: 0,
- T/C or T/T0 (NCI-N87 tumors; Group 2 (8 animals): Compound A 12.5 mg/kg p.o. once daily, vs G1 ns): 46%
- Regressions CR (complete regression) (NCI-N87 tumors; [5]): CR: 0
- Regressions PR (partial regression) (NCI-N87 tumors; [5]): PR: 0,
- T/C or T/T0 (NCI-N87 tumors; Group 3 (6 animals): Compound A 25 mg/kg p.o. once daily, vs G1 *): 12%
- Regressions CR (complete regression) (NCI-N87 tumors; [6]): CR: 0
- Regressions PR (partial regression) (NCI-N87 tumors; [6]): PR: 0,
- T/C or T/T0 (NCI-N87 tumors; Group 4 (4 animals): Compound A 50 mg/kg p.o. once daily, stopped early, vs G1 ne): 81%
- Deaths NTR = non-treatment related [2, 7]: NTR: 1
- Deaths TR = treatment-related [2, 7]: TR: 1
- Deaths NTR = non-treatment related [2, 8]: NTR: 1
- Deaths TR = treatment-related [2, 8]: TR: 1
- Mean BW Nadir (lowest group mean BW) ([2]; Group 3: Compound A 25 mg/kg p.o. once daily, Day 14): −8.4%
- mean body weight change ([3]; 12.5 mg/kg p.o. once daily): 1.4±1.2%
- mean body weight change ([3]; 25 mg/kg p.o. once daily): −1.2±1.2%
- mean change of body weight ([3]; first of the two experiments): 10.6±4.1%
- mean change of body weight ([3]; second of the two experiments): 8.2±2.6%
